The values below come from PubChem BioAssay (NCI).

Some test systems named below: NCI-H226 lung; CAKI-1 renal; K-562 leukemia; DU-145 prostate; MCF7 breast; SK-MEL-5 melanoma; PC-3 prostate; RPMI-8226 leukemia; SF-539 CNS.
Holding throughout (assay): NCI tumour cell line growth inhibition, 48 h

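Following 48 hours of exposure in 96-well plates, responses at five concentrations were used to interpolate endpoints linearly. Abbreviation: GI50, concentration required for 50% inhibition of growth. TGI: total growth inhibition.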

Take `NS(=O)(=O)c1ccc(N=Nc2ccc(O)c(C(=O)O)c2)cc1`: the TGI in the assay with NCI-H226 lung, with CAKI-1 renal, in the assay on K-562 leukemia, in the assay with DU-145 prostate, with MCF7 breast and in the assay on SK-MEL-5 melanoma was > 100 µM each time. Moreover, the TGI in the assay with PC-3 prostate and with RPMI-8226 leukemia was > 100 µM in each case.
Consider `CCOc1cc2c(cc1O)C(N)C[C@@H]1[C@@H]2CC[C@]2(C)[C@@H](O)CC[C@@H]12` (stereo not given in full), for which the TGI in the assay on NCI-H226 lung is > 100 µM; in the assay on CAKI-1 renal, > 100 µM; with K-562 leukemia it was 73.2 µM; in the assay on DU-145 prostate it was > 100 µM; in the assay on MCF7 breast it was > 100 µM; with SK-MEL-5 melanoma it was > 100 µM. Besides, the TGI with PC-3 prostate is > 100 µM. In addition, the GI50 in the assay on DU-145 prostate was > 100 µM.
With `CCCCCCCCCCCCO[P+](=O)OCCCCCCCCCCCC`, the TGI with SF-539 CNS, with NCI-H226 lung, in the assay on K-562 leukemia, with DU-145 prostate, in the assay on MCF7 breast and in the assay with SK-MEL-5 melanoma was > 100 µM throughout. The TGI in the assay on PC-3 prostate and in the assay on RPMI-8226 leukemia was > 100 µM throughout.
`CSCCCNC(=O)[C@H](CSC)NC(=O)c1csc(CCNC(=O)[C@@H](NSc2ccccc2[N+](=O)[O-])C(C)O)n1` (stereo not given in full): the TGI in the assay on SF-539 CNS, with NCI-H226 lung, in the assay with CAKI-1 renal, in the assay with K-562 leukemia, in the assay on DU-145 prostate and in the assay on MCF7 breast was > 100 µM throughout. Besides, the TGI in the assay on SK-MEL-5 melanoma and with PC-3 prostate was > 100 µM each time.
Turning to `CCCCC[C@H]1CCCCCCCCCC(=O)OC2C(O[C@@H]3OC(C)[C@H](OC(=O)[C@@H](C)CC)C(O[C@@H]4OC(C)[C@H](O)C(O)[C@@H]4O)[C@@H]3OC(=O)[C@H](C)CC)[C@H](OC3C(O)[C@@H](O)C(C)O[C@H]3O1)OC(CO)[C@H]2O` (stereo not given in full), the TGI in the assay with CAKI-1 renal was 31.7 µM; in the assay on K-562 leukemia it was 32.9 µM; with DU-145 prostate, 30 µM; in the assay with MCF7 breast, 34.7 µM; in the assay with SK-MEL-5 melanoma, 30.9 µM; with PC-3 prostate, 29.8 µM. Moreover, the TGI with RPMI-8226 leukemia was found to be 30.5 µM.
Regarding `CC1C2(C)OCC(C#N)(C(=N)O2)C1(C#N)C#N` (stereo not given), the TGI in the assay with SF-539 CNS was 57.3 µM; in the assay on NCI-H226 lung, > 100 µM; in the assay with CAKI-1 renal, 25 µM; with K-562 leukemia, > 100 µM; in the assay with DU-145 prostate, 74.3 µM; in the assay on MCF7 breast it was 52.3 µM. Besides, the results for the TGI in the assay with SK-MEL-5 melanoma and in the assay with PC-3 prostate were 23.4 µM and 83.3 µM, respectively.
In the case of `O=C(Cc1ccccc1)NN1C(=O)/C(=C\c2ccccc2O)SC1=Nc1ccccc1`, the TGI with SF-539 CNS, with NCI-H226 lung, with DU-145 prostate, in the assay on MCF7 breast, in the assay on SK-MEL-5 melanoma and with RPMI-8226 leukemia was > 100 µM each time.
For `CCCCCCCCCCCCOP(=O)(O)OP(=O)(O)OCC1OC(n2cc(C)c(=O)[nH]c2=O)CC1O` (stereo not given), the TGI in the assay on SF-539 CNS, with NCI-H226 lung, in the assay on CAKI-1 renal, in the assay on K-562 leukemia, with MCF7 breast and with SK-MEL-5 melanoma was > 100 µM each time. Moreover, the TGI in the assay on PC-3 prostate and in the assay on RPMI-8226 leukemia was > 100 µM each time.
On to `CCOC(=O)C(C(=O)COC(C)(C)C)[C@@H]1C=C[C@H](OC(C)=O)C1` (stereo not given in full), for which the TGI with SF-539 CNS, with NCI-H226 lung, with CAKI-1 renal, with K-562 leukemia, with MCF7 breast and in the assay with PC-3 prostate was > 100 µM in each case. Besides, in the assay on RPMI-8226 leukemia, the TGI was > 100 µM.
Regarding `FC(F)(F)c1ccc2nc(Sc3ccc4ccccc4c3)cnc2c1`, the TGI in the assay on SF-539 CNS was > 100 µM; in the assay on NCI-H226 lung, > 100 µM; in the assay on CAKI-1 renal, > 100 µM; in the assay on K-562 leukemia, > 100 µM; in the assay on DU-145 prostate, > 100 µM; in the assay on MCF7 breast, 95 µM. The TGI in the assay with SK-MEL-5 melanoma is > 100 µM.
Regarding `C=C1CC2[C@H](C)C(=O)CCC2(C)C2=C1C1CCC(C(C)CCC(=C)C(C)C(=O)O)C1(C)CC2=O` (stereo not given in full), the TGI was > 100 µM with SF-539 CNS; > 100 µM in the assay on NCI-H226 lung; > 100 µM in the assay with CAKI-1 renal; 28.7 µM in the assay with K-562 leukemia; > 100 µM in the assay with DU-145 prostate; > 100 µM in the assay on MCF7 breast. In addition, the TGI in the assay on SK-MEL-5 melanoma and in the assay on PC-3 prostate was > 100 µM each time.
In the case of `O=c1[nH]c2ccc([N+](=O)[O-])cc2nc1/C=C(\O)c1ccccc1`, the TGI with SF-539 CNS was 69.8 µM; in the assay with NCI-H226 lung, > 100 µM; in the assay with CAKI-1 renal, 62 µM; in the assay with K-562 leukemia it was > 100 µM; in the assay on DU-145 prostate it was > 100 µM; in the assay with MCF7 breast it was > 100 µM. Further, the TGI in the assay with SK-MEL-5 melanoma and with PC-3 prostate was > 100 µM each time.
With `Cc1ccc(S(=O)(=O)Nn2c(O)c(C#N)c(-c3ccc([N+](=O)[O-])cc3)c(C#N)c2=O)cc1`, the TGI in the assay on SF-539 CNS, in the assay with NCI-H226 lung, in the assay on CAKI-1 renal, in the assay with K-562 leukemia, with MCF7 breast and in the assay on SK-MEL-5 melanoma was > 100 µM each time. The TGI in the assay on PC-3 prostate is > 100 µM.
Turning to `CN(C)/C=C/C=C(/C=N/S(=O)(=O)C(F)(F)F)C1C=CN(S(=O)(=O)C(F)(F)F)C=C1`, the TGI with NCI-H226 lung is 67.3 µM; with CAKI-1 renal, 76.6 µM; in the assay on K-562 leukemia it was > 100 µM; in the assay on DU-145 prostate it was > 100 µM; in the assay with SK-MEL-5 melanoma it was 51.7 µM; with RPMI-8226 leukemia, > 100 µM.
In the case of `COC(=O)c1cc(/C=C\c2cc(OC)ccc2OC)ccc1OC`, the TGI in the assay on SF-539 CNS was > 100 µM; in the assay on CAKI-1 renal it was > 100 µM; with K-562 leukemia, 86 µM; in the assay with DU-145 prostate, > 100 µM; with MCF7 breast, 84.4 µM; in the assay with SK-MEL-5 melanoma, 34.5 µM. The figures for the TGI with PC-3 prostate and in the assay with RPMI-8226 leukemia were > 100 µM and 44.5 µM, respectively.
As to `CC(=O)NC1C(OCc2ccccc2)OC(CO)C(O)C1OCC(=O)N[C@@H](C)C(=O)N[C@H](CCC(=O)NCCCNc1ccc([N+](=O)[O-])c2[nH]c3ccccc3c(=O)c12)C(N)=O` (stereo not given in full), the TGI in the assay on SF-539 CNS is > 100 µM; with NCI-H226 lung, 65.8 µM; in the assay with CAKI-1 renal it was > 100 µM; in the assay with K-562 leukemia it was > 100 µM; in the assay on DU-145 prostate it was > 100 µM; in the assay with SK-MEL-5 melanoma, > 100 µM. In addition, the TGI in the assay on PC-3 prostate and in the assay on RPMI-8226 leukemia was > 100 µM throughout.
